Where two headings read alike, the source gives them in different places. Where only a bound is given, the exact number is not on record here.

Test [1] relates to Staphylococcus aureus ATCC 6538P FDA 209P. The test can be described thus: Antimicrobial activity, serial dilution (MIC/MBC), Sa. The class given is cell-based. As for the experimental part:
(§1) The antimicrobial activity of the test compounds was determined by the serial dilution technique in Muller Hinton Broth 2 and in Sabouradu broth for fungi. The cultures used for testing included Gram-positive bacteria: Staphylococcus aureus ATCC 6538P FDA 209P, Bacillus cereus ATCC 10702 NCTC 8035, Enterococcus faecalis ATCC 29212; Gram-negative bacteria: Escherichia coli ATCC 25922, Pseudomonas aeruginosa ATCC 9027, and fungi: Trichophyton mentagrophytes var. gypseum 1773, and Candida albicans ATCC 10231; methicillin-resistant strains of S. aureus (MRSA) was obtained from hospital patients with chronic tonsillitis in the Republican Clinical Hospital (Kazan, Russia). The bacterial load was 3.0 × 10^5 cfu/ml. The fungi load was 2.0 × 10^3 cfu/ml. The results were recorded every 24 h for 5-7 days. Cultures were incubated at 37 °C. The experiment was repeated three times. […] The minimum inhibitory concentration (MIC) was defined as the minimum concentration of a compound that inhibits the growth of the corresponding test microorganism. The growth of bacteria, as well as the absence of the growth due to the bacteriostatic action of compounds, were recorded.
(§2) Synthesized compounds were further evaluated for antimicrobial activity against test microorganisms: Staphylococcus aureus ATCC 209p (Sa), Bacillus cereus ATCC 8035 (Bc), Escherichia coli CDC F-50 (Ec), Enterococcus faecalis (Ef), Pseudomonas aeruginosa ATCC 9027, Aspergillus niger BKMF-1119, Trichophyton mentagrophytes var. gypseum 1773, and Candida albicans 855-653 including methicillin-resistant strains of S. aureus (MRSA 1 and MRSA 2). The minimum inhibitory (MIC) and minimum bactericidal (MBC) concentrations of ammonium salts were determined against these pathogens (Table 1). Due to the lack of activity of compounds 3a-g against Gram-negative bacterial strains and some fungi, the corresponding data are not shown.

Test [2] deals with Bacillus cereus ATCC 10702 NCTC 8035. The test can be described thus: Antimicrobial activity, serial dilution (MIC/MBC), Bc. Format: cell-based. The procedure:
as §1, §2

Test [3] concerns Enterococcus faecalis ATCC 29212. The test can be described thus: Antimicrobial activity, serial dilution (MIC/MBC), Ef. Format: cell-based. To be noted: ATCC29212. The procedure: as §1, §2
Test [4] relates to Candida albicans ATCC 10231. The test can be described thus: Antimicrobial activity, serial dilution (MIC/MBC), Ca. Format: cell-based. To be noted: ATCC10231. As for the experimental part: as §1, §2
Test [5] concerns Micrococcus luteus B-109. Put plainly: Bactericidal activity, agar diffusion, M. luteus. The class given is cell-based. To be noted: Micrococcus luteus, B109, 2 mM/L. The text has this: (§3) Plant pathogenic bacterial strains Micrococcus luteus B-109, Pectobacterium atrosepticum 1043, Pectobacterium carotovorum subsp. carotovorum MI, Pseudomonas fluorescens EL-2.1, and Xanthomonas campestris B-610 and fungal strain Fusarium oxysporum IBPPM 543 were obtained from the specialized scientific culture collection of IBPPM RAS (WFCC no. 975, WDCM no. 1021) (CM IBPPM). Pathogenic fungus Phytophthora cactorum VKM F-985 provided by the All-Russian Collection of Microorganisms (VKM) and deposited at A.E. Favorsky Irkutsk Institute of Chemistry, SB RAS, was also used as test organism. Bacteria M. luteus, P. carotovorum subsp. carotovorum, P. atrosepticum, and Ps. fluorescens were grown in meat-peptone medium (BP), and X. campestris was grown in the medium with glucose, yeast extract, and calcium carbonate (GYCa). Solid media contained Bacto agar (18 g/L); pH was adjusted to 7.2-7.4. All bacterial cultures were grown at 28°C. The mycelial cultures of F. oxysporum and P. cactorum were grown on a glucose-peptone-yeast (GPY) nutrient medium at 27 °C. For inoculum preparation, both fungal strains were initially grown on the agar GPY in Petri dishes and then transferred into the seed medium by punching out 5 mm of the agar plate culture with a self-designed cutter.
(§4) Antibacterial and antifungal activities of the compounds were explored using the agar diffusion method and the technique of a phytopathogen radial growth inhibition. Method of diffusion in agar (measuring the diameter of growth inhibition zones) was used for determining the bactericidal activity. The 6-mm wells were made in ager medium (GYCa for Xanthomonas campestris or BP for other bacteria). Bacterial suspensions were distributed over the agar surface, and the tested compound's solution (150 μl) was added to each well. The width of growth inhibition zones around the wells was determined after incubation for 36-40 h.
(§5) The solutions of tested compounds were prepared with a concentration of 2 mmol/l (stock solution). For comparison, test compounds were also commonly applied disinfecting agents and antibiotics.

Test [6] deals with Pectobacterium carotovorum subsp. carotovorum MI. The test can be described thus: Bactericidal activity, agar diffusion, P. carotovorum. Format: cell-based. To be noted: Pectobacterium carotovorum, 2 mM/L.
Source text: as §3, §4, §5

In test [7] the test system is Pseudomonas fluorescens EL-2.1. The test can be described thus: Bactericidal activity, agar diffusion, Ps. fluorescens. The class given is cell-based. To be noted: Pseudomonas fluorescens, EL2.1, 2 mM/L.
Source text: as §3, §4, §5
On the technique in general: In agar diffusion tests the substance spreads into inoculated agar from a disc or well.

Test [8] relates to methicillin-resistant strains of S. aureus (MRSA-1). The test can be described thus: Antimicrobial activity, serial dilution (MIC/MBC), MRSA-1. Format: cell-based. To be noted: Staphylococcus aureus. The procedure:
as §1, §2

Test [9] has as its system methicillin-resistant strains of S. aureus (MRSA-2). The test can be described thus: Antimicrobial activity, serial dilution (MIC/MBC), MRSA-2. Format: cell-based. To be noted: Staphylococcus aureus. The procedure:
as §1, §2

Test [10] deals with MRSA-1 and MRSA-2 compared to erythrocytes and hepatocytes. The test can be described thus: Selectivity index (HC50 or IC50 / MIC). The arrangement: species or system Staphylococcus aureus. To be noted: resistant strains MRSA-1 and MRSA-2 compared to erythrocytes and hepatocytes. The procedure:
The selectivity of compounds for microbial cells is an important criterion for assessing the cytotoxic effect. This indicator is characterized by the value of the selectivity index (SI), which for the leading compounds 3b, 3c, and 3d was calculated as the ratio between the HC50 value for erythrocytes (IC50 for eukaryotic cells) and the MIC value for bacterial cells (Fig. 4). […] Its selectivity index was 3–8 times higher than that of compounds 3b and 3c.

Setting [11] is: Staphylococcus aureus, read-out: MBC (converted).
The mark [12] stands for this setting: 150 μl per well, 36-40 h, read-out: width of the inhibition zone.
Where [13] appears, read: read-out: Inhibition zone width (mm), not less.

`CC[N+](CC)(CC)CC(=O)N/N=C1\C(=O)N(Cc2cc(C(C)(C)C)c(O)c(C(C)(C)C)c2)c2ccccc21` [Compound 3a, 2-(2-(1-(3,5-Di-tert-butyl-4-hydroxybenzyl)-2-oxoindolin-3-ylidene)hydrazinyl)-N,N,N-triethyl-2-oxoethanammonium bromide]: the MIC (as a rule, the lowest concentration found to suppress growth) in test [1] (Staphylococcus aureus) was 6.5 ± 0.5 µM; in test [2] (Bacillus cereus, read-out: MIC) it was 52 ± 4.7 µM; in [3], > 500 µM; in test [4], > 500 µM. Moreover, the MBC in test [1] (setting [11]) is 13 µM; in test [2] (Bacillus cereus), > 500 µM; in test [3] it was > 500 µM; in [4] it was > 500 µM. Besides, the zone of inhibition at 2000 µM in test [5] (setting [12]) was 9 mm; in [5] (setting [13]), ≥ 9 mm; in test [6] (setting [12]), 10 mm; in test [6] (setting [13]), ≥ 10 mm; in test [7] (setting [12]) it was 9 mm; in test [7] (setting [13]), ≥ 9 mm.
For the compound `CCc1cccc2c1N(Cc1cc(C(C)(C)C)c(O)c(C(C)(C)C)c1)C(=O)/C2=N\NC(=O)C[N+](CC)(CC)CC` [Compound 3c, 2-(2-(1-(3,5-Di-tert-butyl-4-hydroxybenzyl)-7-ethyl-2-oxoindolin-3-ylidene)hydrazinyl)-N,N,N-triethyl-2-oxoethanammonium bromide], the MBC was 6.2 ± 0.5 µM in [1]; 6.2 µM in test [1] (setting [11]); 99.3 µM in test [2] (Bacillus cereus); > 500 µM in test [3]; 99.3 µM in test [8]; 99.3 µM in test [9]. The MBC in test [4] was > 500 µM. Further, the MIC was 3.1 ± 0.2 µM in test [1] (Staphylococcus aureus); 24.8 ± 1.9 µM in [2]; ~25 µM in [2] (Bacillus cereus, read-out: MIC); > 500 µM in [3]; 49.7 ± 3.9 µM in test [8]; 24.8 ± 2.2 µM in test [9]. The MIC in test [4] is > 500 µM. Also, the zone of inhibition at 2000 µM is 10.5 mm in test [5] (setting [12]); ≥ 10 mm in test [5] (setting [13]); 9 mm in test [6] (setting [12]); ≥ 9 mm in test [6] (setting [13]); 8 mm in [7] (setting [12]); ≥ 8 mm in test [7] (setting [13]).
Turning to `CC[N+](CC)(CC)CC(=O)N/N=C1\C(=O)N(Cc2cc(C(C)(C)C)c(O)c(C(C)(C)C)c2)c2c1ccc(C)c2C` [Compound 3d, 2-(2-(1-(3,5-Di-tert-butyl-4-hydroxybenzyl)-6,7-dimethyl-2-oxoindolin-3-ylidene)hydrazinyl)-N,N,N-triethyl-2-oxoethanammonium bromide], the MIC in test [1] (Staphylococcus aureus) was 3.1 ± 0.2 µM; in test [2] (Bacillus cereus, read-out: MIC), 49.6 ± 3.9 µM; in test [3], 49.6 ± 3.9 µM; in test [8], 6.2 ± 0.5 µM; in test [9], 6.2 ± 0.5 µM; in test [4] it was 198 ± 15.5 µM. Moreover, the MBC in [1] (setting [11]) was 12.4 µM; in test [2] (Bacillus cereus) it was 198 µM; in test [3] it was 49.6 ± 3.9 µM; in test [8] it was 12.4 µM; in test [9], 49.6 µM; in [4] it was > 500 µM. For the same compound, the zone of inhibition at 2000 µM in test [5] (setting [12]) is 8 mm; in test [5] (setting [13]) it was ≥ 8 mm; in test [6] (setting [12]) it was 8 mm; in test [6] (setting [13]) it was ≥ 8 mm; in [7] (setting [12]), 9 mm; in test [7] (setting [13]), ≥ 9 mm. In [10], the “selectivity index, times higher than that of compounds 3b and 3c” value is listed as 3–8 times.
As to `CC[N+](CC)(CC)CC(=O)N/N=C1\C(=O)N(Cc2cc(C(C)(C)C)c(O)c(C(C)(C)C)c2)c2cccc(Br)c21` [Compound 3e, 2-(2-(1-(3,5-Di-tert-butyl-4-hydroxybenzyl)-4-bromo-2-oxoindolin-3-ylidene)hydrazinyl)-N,N,N-triethyl-2-oxoethanammonium bromide], the MIC in test [1] (Staphylococcus aureus) is 8.9 ± 0.7 µM; in test [2] (Bacillus cereus, read-out: MIC), 71 ± 6.2 µM; in test [3], > 500 µM; in [4] it was > 500 µM. In addition, the MBC in test [1] (setting [11]) is 17.7 µM; in [2] (Bacillus cereus), 284 µM; in [3] it was > 500 µM; in test [4] it was > 500 µM. The zone of inhibition at 2000 µM in test [5] (setting [12]) was 13 mm; in test [5] (setting [13]), ≥ 13 mm; in test [6] (setting [12]), 10 mm; in [6] (setting [13]), ≥ 10 mm; in [7] (setting [12]) it was 9 mm; in test [7] (setting [13]), ≥ 9 mm.
Consider `CC[N+](CC)(CC)CC(=O)N/N=C1\C(=O)N(Cc2cc(C(C)(C)C)c(O)c(C(C)(C)C)c2)c2ccc([N+](=O)[O-])cc21` [Compound 3f, 2-(2-(1-(3,5-Di-tert-butyl-4-hydroxybenzyl)-5-nitro-2-oxoindolin-3-ylidene)hydrazinyl)-N,N,N-triethyl-2-oxoethanammonium bromide], for which the MIC in test [1] (Staphylococcus aureus) is 48.3 ± 3.9 µM; in test [2] (Bacillus cereus, read-out: MIC), 397 ± 31.7 µM; in test [3], > 500 µM; in test [4], > 500 µM. In addition, the MBC in [1] (setting [11]) is 96.7 µM; in [2] (Bacillus cereus) it was > 500 µM; in test [3] it was > 500 µM; in [4], > 500 µM. The zone of inhibition at 2000 µM is 10 mm in [5] (setting [12]); ≥ 10 mm in test [5] (setting [13]); 5 mm in test [6] (setting [12]); 10 mm in [7] (setting [12]); ≥ 10 mm in test [7] (setting [13]).
With `CC[N+](CC)(CC)CC(=O)N/N=C1\C(=O)N(Cc2cc(C(C)(C)C)c(O)c(C(C)(C)C)c2)c2c(Br)cc(Cl)cc21` [Compound 3g, 2-(2-(1-(3,5-Di-tert-butyl-4-hydroxybenzyl)-5-chloro-7-bromo-2-oxoindolin-3-ylidene)hydrazinyl)-N,N,N-triethyl-2-oxoethanammonium bromide], the MIC in [1] (Staphylococcus aureus) is 11 ± 0.9 µM; in [2] (Bacillus cereus, read-out: MIC), 43.7 ± 3.5 µM; in [3], > 500 µM; in [4], > 500 µM. Also, the MBC was 21.9 µM in test [1] (setting [11]), 87.4 µM in [2] (Bacillus cereus), > 500 µM in [3] and > 500 µM in [4]. Also, the zone of inhibition at 2000 µM in [5] (setting [12]) is 7 mm; in test [6] (setting [12]), 9 mm; in test [6] (setting [13]) it was ≥ 9 mm; in test [7] (setting [12]), 8.5 mm; in test [7] (setting [13]), ≥ 8 mm.

Source of the values: paper PMC8957246, “Synthesis and diverse biological activity profile of triethylammonium isatin-3-hydrazones” (ADMET & DMPK, 2022).
